Laboratory results as given in patent US9624209B2, “Substituted phenylureas and phenylamides as vanilloid receptor ligands” (Gruenenthal GmbH, priority 2009, dated 2017).
One block for each compound: values may come before it.

Tests used:
[1] = target: T1, vanilloid receptor 1 (VR1/TRPV1 receptor) (Homo sapiens, UniProt Q8NER1); assay: VR1/TRPV1 receptor affinity, NADA stimulus (human); format: cell-based; conditions: N-arachidonoyl dopamine; read-out: Ki (human being) [nM] NADA
T1 construct: expressed in transfected cells; host or cells: CHO K1 cells (ECACC), stably transfected
T1 sequence (Q8NER1 whole entry): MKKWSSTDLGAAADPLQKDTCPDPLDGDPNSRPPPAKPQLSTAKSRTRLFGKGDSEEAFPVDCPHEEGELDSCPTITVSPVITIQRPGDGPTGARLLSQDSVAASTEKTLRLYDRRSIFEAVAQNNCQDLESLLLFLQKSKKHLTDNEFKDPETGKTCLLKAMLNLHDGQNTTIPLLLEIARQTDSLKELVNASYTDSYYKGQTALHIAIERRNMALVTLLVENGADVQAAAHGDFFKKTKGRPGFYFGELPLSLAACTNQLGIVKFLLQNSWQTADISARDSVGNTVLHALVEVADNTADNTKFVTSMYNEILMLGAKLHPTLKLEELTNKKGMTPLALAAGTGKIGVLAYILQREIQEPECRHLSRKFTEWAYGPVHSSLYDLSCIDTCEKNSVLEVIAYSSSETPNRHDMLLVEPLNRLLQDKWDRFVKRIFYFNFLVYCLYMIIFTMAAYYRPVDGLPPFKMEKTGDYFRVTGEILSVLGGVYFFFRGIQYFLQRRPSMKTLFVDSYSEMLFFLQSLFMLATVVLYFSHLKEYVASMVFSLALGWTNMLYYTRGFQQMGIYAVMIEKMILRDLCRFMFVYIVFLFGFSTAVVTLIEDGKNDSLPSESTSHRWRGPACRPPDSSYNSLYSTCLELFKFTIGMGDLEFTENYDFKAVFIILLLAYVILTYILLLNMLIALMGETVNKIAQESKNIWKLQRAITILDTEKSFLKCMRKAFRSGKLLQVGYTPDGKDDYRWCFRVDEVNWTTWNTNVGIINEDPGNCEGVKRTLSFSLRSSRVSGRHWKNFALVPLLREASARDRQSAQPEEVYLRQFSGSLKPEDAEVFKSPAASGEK

[2] = target: T1, vanilloid receptor 1 (VR1/TRPV1 receptor); assay: VR1 inhibition, 45° C. heat stimulus (human); format: cell-based, human being; set-up: key to IC50 (human being) [nM], 45° C.: result in words: AG=agonist; pAG=partial agonist; NE=no effect
[3] = target: T1, vanilloid receptor 1 (VR1/TRPV1 receptor); assay: VR1/TRPV1 receptor affinity, capsaicin stimulus (human); format: cell-based, human being; conditions: for inhibition at 5 µM: Tables 8-12, read-out: (f) Ki (human being) [nM] Cap: inhibition (as a percentage); for Ki: Tables 8-12, read-out: (f) Ki (human being) [nM] Cap

Compound: CCCCCCn1nc(C(C)(C)C)cc1CNC(=O)C(C)c1ccc(NS(C)(=O)=O)c(F)c1 (stereo not shown) [Example 5, N-((3-tert-butyl-1-hexyl-1H-pyrazol-5-yl)methyl)-2-(3-fluoro-4-(methylsulfonamido)phenyl)propanamide]
Ki [1]: 4.99 nM

Compound: CC(C(=O)NCc1cc(C(C)(C)C)nn1-c1ccc(F)c(Cl)c1)c1ccc(NS(C)(=O)=O)c(F)c1 (stereo not shown) [Example 18, N-((3-tert-butyl-1-(3-chloro-4-fluorophenyl)-1H-pyrazol-5-yl)methyl)-2-(3-fluoro-4-(methylsulfonamido)phenyl)propanamide]
Ki [1]: 0.22 nM

Compound: CC(C(=O)NCc1cc(C(C)(C)C)nn1-c1cccc(Cl)c1)c1cc(F)c(NS(C)(=O)=O)c(F)c1 (stereo not shown) [Example 29, N-((3-tert-butyl-1-(3-chlorophenyl)-1H-pyrazol-5-yl)methyl)-2-(3,5-difluoro-4-(methylsulfonamido)phenyl)propanamide]
Ki [1]: 0.08 nM

Compound: CC(C(=O)NCc1cc(C(C)(C)C)nn1-c1cccc(Cl)c1)c1ccc(S(=O)(=O)N(C)C)c(F)c1 (stereo not shown) [Example 56, N-((3-tert-butyl-1-(3-chlorophenyl)-1H-pyrazol-5-yl)methyl)-2-(4-(N,N-dimethylsulfamoyl)-3-fluorophenyl)propanamide]
IC50 (human being) [nM], 45° C.: result in words [2]: AG

Compound: Cc1c(C(F)(F)F)nn(-c2cccc(Cl)c2)c1CNC(=O)C(C)c1ccc(CNS(C)(=O)=O)c(F)c1 (stereo not shown) [Example 134, N-((1-(3-chlorophenyl)-4-methyl-3-(trifluoromethyl)-1H-pyrazol-5-yl)methyl)-2-(3-fluoro-4-(methylsulfonamid-methyl)phenyl)propanamide]
IC50 ([2]; read-out: IC50 (human being) [nM], 45° C.): 546 nM

Compound: N-(3-Chlorophenyl)-4-[1-[[2-(3-chlorophenyl)-5-(trifluoromethyl)-2H-pyrazol-3-yl]-methyl-carbamoyl]-ethyl]-benzamide [Example E32]
Ki [3]: 48 nM

Compound: N-(4-Chlorophenyl)-4-[1-[[2-(3-chlorophenyl)-5-(trifluoromethyl)-2H-pyrazol-3-yl]-methyl-carbamoyl]-ethyl]-2-fluoro-benzamide [Example E46]
Ki [3]: 2 nM

Compound: N-(4-Chlorophenyl)-4-[1-[[2-(3-chlorophenyl)-5-(trifluoromethyl)-2H-pyrazol-3-yl]-methyl-carbamoyl]-ethyl]-benzamide [Example E33]
Ki [3]: 6 nM

Compound: N-[[2-(3-Chlorophenyl)-5-cyclopropyl-2H-pyrazol-3-yl]-methyl]-2-[3-fluoro-4-(methanesulfonamido-methyl)-phenyl]-propionamide [Example B4]
Ki [3]: 61 nM

Compound: N-[[4-[[[5-tert-Butyl-2-(3-chlorophenyl)-2H-pyrazol-3-yl]-methyl-carbamoyl]amino]-2-fluoro-phenyl]-methyl]-acetamide [Example B34]
Ki [3]: 15 nM

More lines, now with the values ahead:

inhibition at 5 µM [3]: 32%
Compound: CC(C(=O)NCc1cc(C(F)(F)F)nn1-c1cccc(Cl)c1)c1ccc(C(=O)N2CCOCC2)c(F)c1 (stereo not shown) [Example E16, N-[[2-(3-Chlorophenyl)-5-(trifluoromethyl)-2H-pyrazol-3-yl]-methyl]-2-[3-fluoro-4-(morpholine-4-carbonyl)-phenyl]-propionamide]

inhibition at 5 µM [3]: 42%
Compound: CC(C(=O)NCc1cc(C(C)(C)C)nn1-c1cccc(Cl)c1)c1ccc(C(=O)N2CCOCC2)c(F)c1 (stereo not shown) [Example E17, N-[[5-tert-Butyl-2-(3-chlorophenyl)-2H-pyrazol-3-yl]-methyl]-2-[3-fluoro-4-(morpholine-4-carbonyl)-phenyl]-propionamide]

Ki [3]: 37 nM
Compound: O=C(NCc1cc(C(F)(F)F)nn1-c1cccc(Cl)c1)Nc1ccc(C(=O)NCCO)c(F)c1 [Example E18]

inhibition at 5 µM [3]: 49%
Compound: CN(C(=O)Nc1ccc(C(=O)NC2CCOCC2)c(F)c1)c1cc(C(F)(F)F)nn1-c1cccc(Cl)c1 [Example E22, 4-[[[2-(3-Chlorophenyl)-5-(trifluoromethyl)-2H-pyrazol-3-yl]-methyl-carbamoyl]amino]-2-fluoro-N-tetrahydro-pyran-4-yl-benzamide]

inhibition at 5 µM [3]: 24.8%
Compound: CC(C(=O)N(C)c1cc(C(F)(F)F)nn1-c1cccc(Cl)c1)c1ccc(C(=O)NC2CCOCC2)c(F)c1 (stereo not shown) [Example E23, 4-[1-[[2-(3-Chlorophenyl)-5-(trifluoromethyl)-2H-pyrazol-3-yl]-methyl-carbamoyl]-ethyl]-2-fluoro-N-tetrahydro-pyran-4-yl-benzamide]

Ki [3]: 1 nM
Compound: CC(C(=O)NCc1cc(C(C)(C)C)nn1-c1cccc(Cl)c1)c1ccc(C(=O)Nc2ccc(F)cc2)c(F)c1 (stereo not shown) [Example E44, 4-[1-[[5-tert-Butyl-2-(3-chlorophenyl)-2H-pyrazol-3-yl]-methyl-carbamoyl]-ethyl-]-2-fluoro-N-(4-fluorophenyl)-benzamide]

Ki [3]: 0.3 nM
Compound: CC(C(=O)NCc1cc(C(F)(F)F)nn1-c1cccc(Cl)c1)c1ccc(C(=O)Nc2ccc(F)cc2)c(F)c1 (stereo not shown) [Example E45, 4-[1-[[2-(3-Chlorophenyl)-5-(trifluoromethyl)-2H-pyrazol-3-yl]-methyl-carbamoyl]-ethyl]-2-fluoro-N-(4-fluorophenyl)-benzamide]

inhibition at 5 µM [3]: 52%
Compound: COc1cc(NC(=O)N(C)c2cc(C(C)(C)C)nn2-c2cccc(Cl)c2)ccc1C(=O)O [Example E56, 4-[[[5-tert-Butyl-2-(3-chlorophenyl)-2H-pyrazol-3-yl]-methyl-carbamoyl]amino]-2-methoxy-benzoic acid]

Ki [3]: 23 nM
Compound: O=Cc1ccc(NC(=O)NCc2cc(C(F)(F)F)nn2-c2cccc(Cl)c2)cc1F [Example E61, 1-((1-(3-chlorophenyl)-3-(trifluoromethyl)-1H-pyrazol-5-yl)methyl)-3-(3-fluoro-4-formylphenyl)urea]
